Assays:
Test in all cases: cells
Details in all cases: Homo sapiens
[1] = system: HO-1-N-1; assay type: functional, cell-based;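 further: growth inhibition of human HO-1-N-1 cells, read out with a cell viability assay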
Description: SANGER: Inhibition of human HO-1-N-1 cell growth in a cell viability assay.

[2] = system: CAPAN-1; assay type: functional, cell-based;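 further: growth suppression of CAPAN-1 cells, read out by a cell viability assay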
Description: SANGER: Inhibition of human CAPAN-1 cell growth in a cell viability assay.

[3] = system: TYK-nu; assay type: functional, cell-based;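 further: growth inhibition of human TYK-nu cells, read out by a cell viability assay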
Description: SANGER: Inhibition of human TYK-nu cell growth in a cell viability assay.

[4] = system: 5637; assay type: functional, cell-based
Description: SANGER: Inhibition of human 5637 cell growth in a cell viability assay.

[5] = system: BHT-101; assay type: functional, cell-based
Description: SANGER: Inhibition of human BHT-101 cell growth in a cell viability assay.

[6] = system: JEG-3; assay type: functional, cell-based;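 further: growth inhibition of human JEG-3 cells, read out with a cell viability assay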
Description: SANGER: Inhibition of human JEG-3 cell growth in a cell viability assay.

[7] = system: BT-20; assay type: functional, cell-based;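 further: cell viability assay measuring suppression of growth in human BT-20 cells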
Description: SANGER: Inhibition of human BT-20 cell growth in a cell viability assay.

[8] = system: COLO-792; assay type: functional, cell-based
Description: SANGER: Inhibition of human COLO-792 cell growth in a cell viability assay.

[9] = system: SK-LU-1; assay type: functional, cell-based;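 further: cell viability assay measuring growth inhibition of human SK-LU-1 cells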
Description: SANGER: Inhibition of human SK-LU-1 cell growth in a cell viability assay.

[10] = system: Detroit 562; assay type: functional, cell-based;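 further: growth inhibition of human Detroit 562 cells, read out by a cell viability assay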
Description: SANGER: Inhibition of human Detroit562 cell growth in a cell viability assay.

[11] = system: SBC-5; assay type: functional, cell-based;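 further: cell viability assay read-out, IC50 is the concentration that inhibits growth of the cells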
Description: SANGER: Inhibition of human SBC-5 cell growth in a cell viability assay.

[12] = system: SW1710; assay type: functional, cell-based;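 further: growth inhibition of SW1710 cells, determined with a cell viability assay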
Description: SANGER: Inhibition of human SW1710 cell growth in a cell viability assay.

[13] = system: NCI-H630; assay type: functional, cell-based;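 further: growth inhibition of NCI-H630 cells, read out with a cell viability assay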
Description: SANGER: Inhibition of human NCI-H630 cell growth in a cell viability assay.

[14] = system: SCC-4; assay type: functional, cell-based;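 further: growth inhibition of human SCC-4 cells, read out as cell viability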
Description: SANGER: Inhibition of human SCC-4 cell growth in a cell viability assay.

[15] = system: LCLC-97TM1; assay type: functional, cell-based;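 further: cell viability assay measuring growth inhibition of human LCLC-97TM1 cells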
Description: SANGER: Inhibition of human LCLC-97TM1 cell growth in a cell viability assay.

[16] = system: ABC-1; assay type: functional, cell-based;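 further: growth inhibition of human ABC-1 cells, read out by a cell viability assay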
Description: SANGER: Inhibition of human ABC-1 cell growth in a cell viability assay.

[17] = system: NCI-H650; assay type: functional, cell-based;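 further: growth inhibition of NCI-H650 cells, read out by a viability assay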
Description: SANGER: Inhibition of human NCI-H650 cell growth in a cell viability assay.

[18] = system: RD; assay type: functional, cell-based
Description: SANGER: Inhibition of human RD cell growth in a cell viability assay.

[19] = system: SNU-387; assay type: functional, cell-based
Description: SANGER: Inhibition of human SNU-387 cell growth in a cell viability assay.

[20] = system: C32; assay type: functional, cell-based;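 further: cell viability assay, with IC50 reflecting inhibition of C32 cell growth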
Description: SANGER: Inhibition of human C32 cell growth in a cell viability assay.

[21] = system: M14; assay type: functional, cell-based;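 further: growth inhibition of M14 cells, read out with a cell viability assay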
Description: SANGER: Inhibition of human M14 cell growth in a cell viability assay.

[22] = system: Ca9-22; assay type: functional, cell-based;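 further: growth inhibition of Ca9-22 cells, read out with a cell viability assay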
Description: SANGER: Inhibition of human Ca9-22 cell growth in a cell viability assay.

[23] = system: LN-405; assay type: functional, cell-based
Description: SANGER: Inhibition of human LN-405 cell growth in a cell viability assay.

[24] = system: T98G; assay type: functional, cell-based;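 further: growth inhibition of T98G cells, read out by a cell viability assay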
Description: SANGER: Inhibition of human T98G cell growth in a cell viability assay.

[25] = system: 647-V; assay type: functional, cell-based;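 further: growth inhibition of 647-V cells, read out with a cell viability assay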
Description: SANGER: Inhibition of human 647-V cell growth in a cell viability assay.

[26] = system: OVCAR-8; assay type: functional, cell-based;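 further: growth inhibition of human OVCAR-8 cells, read out by a cell viability assay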
Description: SANGER: Inhibition of human OVCAR-8 cell growth in a cell viability assay.

[27] = system: SK-HEP1; assay type: functional, cell-based, SK-HEP-1;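 further: cell viability readout used to quantify reduction in proliferation of human SK-HEP-1 cells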
Description: SANGER: Inhibition of human SK-HEP-1 cell growth in a cell viability assay.

[28] = system: MC-IXC; assay type: functional, cell-based;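 further: growth inhibition of MC-IXC cells, read out with a cell viability assay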
Description: SANGER: Inhibition of human MC-IXC cell growth in a cell viability assay.

[29] = system: EFO-21; assay type: functional, cell-based;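 further: growth inhibition of EFO-21 cells measured with a viability assay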
Description: SANGER: Inhibition of human EFO-21 cell growth in a cell viability assay.

[30] = system: GP5d; assay type: functional, cell-based;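 further: growth inhibition of human GP5d cells, read out with a cell viability assay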
Description: SANGER: Inhibition of human GP5d cell growth in a cell viability assay.

[31] = system: SW-620; assay type: functional, cell-based;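 further: growth inhibition of human SW-620 cells, measured by a cell viability assay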
Description: SANGER: Inhibition of human SW620 cell growth in a cell viability assay.

[32] = system: KYSE-510; assay type: functional, cell-based;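 further: cell viability readout used to measure how strongly growth of the cell line is suppressed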
Description: SANGER: Inhibition of human KYSE-510 cell growth in a cell viability assay.

[33] = system: MCF7; assay type: functional, cell-based;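 further: growth inhibition of human MCF7 cells, read out with a cell viability assay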
Description: SANGER: Inhibition of human MCF7 cell growth in a cell viability assay.

[34] = system: MOLT-13; assay type: functional, cell-based;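 further: IC50 for suppression of MOLT-13 cell growth, read out with a cell viability assay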
Description: SANGER: Inhibition of human MOLT-13 cell growth in a cell viability assay.

[35] = system: YAPC; assay type: functional, cell-based;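 further: growth inhibition of YAPC cells, measured with a cell viability assay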
Description: SANGER: Inhibition of human YAPC cell growth in a cell viability assay.

[36] = system: SAOS-2; assay type: functional, cell-based;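 further: growth inhibition of human Saos-2 cells determined by a cell viability assay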
Description: SANGER: Inhibition of human Saos-2 cell growth in a cell viability assay.

[37] = system: HCC38; assay type: functional, cell-based;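 further: cell viability assay on the human HCC38 cell line, with IC50 marking the concentration that inhibits cell growth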
Description: SANGER: Inhibition of human HCC38 cell growth in a cell viability assay.

[38] = system: NCI-H1993; assay type: functional, cell-based;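 further: growth inhibition of the cancer cell line, assessed with a cell viability assay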
Description: SANGER: Inhibition of human NCI-H1993 cell growth in a cell viability assay.

[39] = system: D-247MG; assay type: functional, cell-based
Description: SANGER: Inhibition of human D-247MG cell growth in a cell viability assay.

[40] = system: KYSE-180; assay type: functional, cell-based;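 further: growth inhibition of KYSE-180 cells, read out with a cell viability assay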
Description: SANGER: Inhibition of human KYSE-180 cell growth in a cell viability assay.

[41] = system: SW1463; assay type: functional, cell-based;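 further: growth inhibition of SW1463 cells, determined with a cell viability assay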
Description: SANGER: Inhibition of human SW1463 cell growth in a cell viability assay.

[42] = system: SNU-423; assay type: functional, cell-based
Description: SANGER: Inhibition of human SNU-423 cell growth in a cell viability assay.

[43] = system: 639-V; assay type: functional, cell-based;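 further: growth inhibition of 639-V cells, read out with a cell viability assay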
Description: SANGER: Inhibition of human 639-V cell growth in a cell viability assay.

[44] = system: HCC2157; assay type: functional, cell-based;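 further: growth inhibition of the cancer cell line, read out as cell viability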
Description: SANGER: Inhibition of human HCC2157 cell growth in a cell viability assay.

[45] = system: SiHa; assay type: functional, cell-based;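 further: Viability-based readout of growth inhibition in SiHa cells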
Description: SANGER: Inhibition of human SiHa cell growth in a cell viability assay.

[46] = system: S-117; assay type: functional, cell-based
Description: SANGER: Inhibition of human S-117 cell growth in a cell viability assay.

[47] = system: BEN; assay type: functional, cell-based;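 further: growth inhibition of the BEN cell line, read out with a cell viability assay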
Description: SANGER: Inhibition of human BEN cell growth in a cell viability assay.

[48] = system: A2058; assay type: functional, cell-based;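 further: reduction of A2058 cell growth, read out with a viability assay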
Description: SANGER: Inhibition of human A2058 cell growth in a cell viability assay.

[49] = system: IST-SL2; assay type: functional, cell-based;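 further: growth inhibition of human IST-SL2 cells, read out by a cell viability assay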
Description: SANGER: Inhibition of human IST-SL2 cell growth in a cell viability assay.

[50] = system: U-698-M; assay type: functional, cell-based
Description: SANGER: Inhibition of human U-698-M cell growth in a cell viability assay.

[51] = system: D-336MG; assay type: functional, cell-based
Description: SANGER: Inhibition of human D-336MG cell growth in a cell viability assay.

[52] = system: Daudi; assay type: functional, cell-based;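 further: growth inhibition of Daudi cells, read out by a viability assay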
Description: SANGER: Inhibition of human Daudi cell growth in a cell viability assay.

[53] = system: P31-FUJ; assay type: functional, cell-based;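 further: growth inhibition of P31-FUJ cells, read out with a viability assay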
Description: SANGER: Inhibition of human P31-FUJ cell growth in a cell viability assay.

[54] = system: EB2; assay type: functional, cell-based;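 further: growth inhibition of EB2 cells, read out with a cell viability assay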
Description: SANGER: Inhibition of human EB2 cell growth in a cell viability assay.

[55] = system: MDA-MB-134-VI; assay type: functional, cell-based
Description: SANGER: Inhibition of human MDA-MB-134-VI cell growth in a cell viability assay.

[56] = system: NCI-H719; assay type: functional, cell-based;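 further: growth inhibition of the cultured cell line, read out with a viability assay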
Description: SANGER: Inhibition of human NCI-H719 cell growth in a cell viability assay.

[57] = system: 23132-87; assay type: functional, cell-based
Description: SANGER: Inhibition of human 23132-87 cell growth in a cell viability assay.

[58] = system: MKN-28; assay type: functional, cell-based;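 further: cell viability assay read-out, IC50 reflects suppression of growth of human MKN-28 cells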
Description: SANGER: Inhibition of human MKN28 cell growth in a cell viability assay.

[59] = system: MEL-JUSO; assay type: functional, cell-based;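 further: growth inhibition of human MEL-JUSO cells, read out with a cell viability assay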
Description: SANGER: Inhibition of human MEL-JUSO cell growth in a cell viability assay.

[60] = system: MRK-nu-1; assay type: functional, cell-based;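 further: cell viability assay measuring growth suppression of human MRK-nu-1 cells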
Description: SANGER: Inhibition of human MRK-nu-1 cell growth in a cell viability assay.

[61] = system: NCI-H748; assay type: functional, cell-based
Description: SANGER: Inhibition of human NCI-H748 cell growth in a cell viability assay.

[62] = system: SK-MEL-24; assay type: functional, cell-based
Description: SANGER: Inhibition of human SK-MEL-24 cell growth in a cell viability assay.

[63] = system: NCI-H2141; assay type: functional, cell-based
Description: SANGER: Inhibition of human NCI-H2141 cell growth in a cell viability assay.

[64] = system: NCI-H2009; assay type: functional, cell-based
Description: SANGER: Inhibition of human NCI-H2009 cell growth in a cell viability assay.

[65] = system: NCI-H2171; assay type: functional, cell-based
Description: SANGER: Inhibition of human NCI-H2171 cell growth in a cell viability assay.

CC(=O)c1c(C)c2cnc(Nc3ccc(N4CCNCC4)cn3)nc2n(C2CCCC2)c1=O [PALBOCICLIB] showed an IC50 [1] of 963 nM, an IC50 [2] of over 4000 nM and an IC50 [3] of 998 nM. It also gave an IC50 [4] of over 4000 nM, an IC50 [5] of 198 nM and an IC50 [6] of over 4000 nM. The IC50 [7] was over 4000 nM, the IC50 [8] was over 4000 nM and the IC50 [9] was 1620 nM. The IC50 [10] was over 4000 nM, the IC50 [11] was over 4000 nM and the IC50 [12] was 2070 nM. It also gave an IC50 [13] of over 4000 nM, an IC50 [14] of over 4000 nM and an IC50 [15] of over 4000 nM. The IC50 [16] was 1790 nM, the IC50 [17] was over 4000 nM and the IC50 [18] was over 4000 nM. The IC50 [19] was over 4000 nM, the IC50 [20] was over 4000 nM and the IC50 [21] was over 4000 nM. The IC50 [22] was over 4000 nM, the IC50 [23] was over 4000 nM and the IC50 [24] was 2010 nM. For the same molecule, the IC50 [25] was over 4000 nM, the IC50 [26] was over 4000 nM and the IC50 [27] was 2590 nM. The IC50 [28] was over 4000 nM, the IC50 [29] was over 4000 nM and the IC50 [30] was over 4000 nM. The IC50 [31] was 2260 nM, the IC50 [32] was over 4000 nM and the IC50 [33] was 2710 nM. The IC50 [34] was 1010 nM, the IC50 [35] was over 4000 nM and the IC50 [36] was over 4000 nM. The IC50 [37] was over 4000 nM, the IC50 [38] was over 4000 nM and the IC50 [39] was over 4000 nM. It also gave an IC50 [40] of over 4000 nM, an IC50 [41] of over 4000 nM and an IC50 [42] of over 4000 nM. The IC50 [43] was over 4000 nM, the IC50 [44] was over 4000 nM and the IC50 [45] was over 4000 nM. The IC50 [46] was over 4000 nM and the IC50 [47] was over 4000 nM.
In the case of CC(C)=CC[C@@H](O)C1=CC(=O)c2c(O)ccc(O)c2C1=O [SHIKONIN], the IC50 [48] is reported as 919 nM, the IC50 [1] is reported as 462 nM and the IC50 [2] is reported as 759 nM. For the same molecule, the IC50 [49] was 200 nM, the IC50 [50] was 301 nM and the IC50 [3] was 1150 nM. The IC50 [4] was over 16000 nM, the IC50 [5] was 1250 nM and the IC50 [6] was 3170 nM. For the same molecule, the IC50 [7] was 2560 nM, the IC50 [51] was 1750 nM and the IC50 [8] was over 16000 nM. The IC50 [9] was 750 nM, the IC50 [10] was over 16000 nM and the IC50 [11] was 215 nM. For the same molecule, the IC50 [52] was 3440 nM, the IC50 [12] was under 62.5 nM and the IC50 [13] was 1300 nM. For the same molecule, the IC50 [14] was 441 nM, the IC50 [15] was 613 nM and the IC50 [53] was 2070 nM. It also gave an IC50 [54] of 311 nM, an IC50 [55] of 709 nM and an IC50 [56] of 2610 nM. It also gave an IC50 [16] of 707 nM, an IC50 [17] of 665 nM and an IC50 [18] of 449 nM. The IC50 [19] was 1070 nM, the IC50 [20] was 2680 nM and the IC50 [21] was 1490 nM. It also gave an IC50 [22] of 581 nM, an IC50 [23] of 6910 nM and an IC50 [57] of 2110 nM. For the same molecule, the IC50 [58] was 617 nM, the IC50 [24] was 1080 nM and the IC50 [59] was 540 nM. The IC50 [25] was 359 nM, the IC50 [26] was 460 nM and the IC50 [27] was 548 nM. For the same molecule, the IC50 [28] was 387 nM, the IC50 [29] was 1340 nM and the IC50 [60] was 102 nM. For the same molecule, the IC50 [61] was 1780 nM, the IC50 [30] was 1340 nM and the IC50 [31] was 359 nM. For the same molecule, the IC50 [32] was 253 nM, the IC50 [33] was 435 nM and the IC50 [62] was 1130 nM. The IC50 [35] was over 16000 nM, the IC50 [63] was 1710 nM and the IC50 [36] was 2370 nM. For the same molecule, the IC50 [37] was 787 nM, the IC50 [64] was 20.5 nM and the IC50 [38] was 2940 nM. For the same molecule, the IC50 [39] was 1660 nM, the IC50 [65] was 909 nM and the IC50 [40] was 1010 nM. It also gave an IC50 [41] of 8610 nM, an IC50 [42] of 163 nM and an IC50 [43] of 265 nM. For the same molecule, the IC50 [44] was 338 nM, the IC50 [45] was over 16000 nM and the IC50 [46] was 387 nM. For the same molecule, the IC50 [47] was 814 nM.
